Test results: patent US10677782B2, “Methods of determining interferon having direct inhibitory effects on tumors and uses thereof” (SUPERLAB FAR EAST LIMITED, priority 2013, dated 2020)

Experiments:
[1] = system: procaspase-3, cleaved caspase-3, procaspase-8, cleaved caspase-8, PARP in A549 cells; assay: Apoptosis-related molecular markers by Western Blot; format: cell-based, human; details: 24 hr or 48 hr; interferons at 10 mcg/ml
From the text: (§1) Thereafter, apoptosis-related molecular markers were monitored by Western Blot. The primary antibodies used were mouse monoclonal anti-beta-tubulin (1:2000, Cat #: CW0098A) and mouse monoclonal anti-GAPDH (1:2000, Cat #: CW0100A) (Kangwei Biotechnology, China); mouse monoclonal anti-PARP (1:1000, Cat #: se-2007, Santa Cruz Biotechnology, Inc.); rabbit monoclonal anti-procaspase 3 (1:1000, Cat #: 9665), and rabbit polyclonal anti-cleaved caspase 3 (1:1000, Cat #: 9661) (Cell Signaling Technology, USA); goat polyclonal anti-procaspase 8 (1:1000, Cat #: sc-6136, Santa Cruz Biotechnology, Inc); rabbit monoclonal anti-cleaved caspase 8 (1:1000, Cat #: 9496) (Cell Signaling Technology, USA).

[2] = system: procaspase-3, cleaved caspase-3, procaspase-8, cleaved caspase-8, PARP in SW620 cells; assay: as above; format: cell-based, human; details: 24 hr or 48 hr; interferons at 10 mcg/ml
From the text: as §1

human hepatoma SMMC-7721 = assay: Human hepatoma SMMC-7721 xenografts in nude mice (Example 1); format: in vivo; details: 5 mg/kg i.v.
Method: The test article was used without dilution. It was stored at 4° C. until thawed for injection.
The animals used were 4-6 weeks old male BALB/cA nu/nu mice, weighing about 23±2 g, obtained from the Shanghai Institute of Materia Medica (Shanghai, P.R. China). The study protocol was reviewed by the Committee on the Use and Care of Animals of Shanghai Institute of Materia Medica for compliance with regulations, and Committee approval was obtained prior to study initiation. Wherever possible, procedures used in this study were designed to avoid or minimize discomfort, distress, and pain to the animals. Animals that experience severe or chronic pain or distress that could not be relieved were painlessly euthanized, in accordance to regulations. Animals were housed 6 to a cage. They were ear-marked with ear hole punch identification. The room temperature was maintained at 25° C.±1° C. Lighting was set at 12 hr on and 12 hr off. Food was provided ad libitum. City tap water, filtered with a 5 micrometer (μm) filter, was provided to the animals ad libitum via water bottles. Neither the Study Director nor Huiyang Life Science and Technology Corp. was aware of any contaminant in the food or water that would interfere with or influence the intent and purpose of this study.
The test article (rSIFN-co) and the vehicle control were each administered intratumorally (i.t.). The test article was administered in a volume of 0.05 ml-0.15 ml per mouse per treatment, depending on the group to which the animal was assigned. […] Normal saline was injected in a volume of 0.15 ml per mouse, which was used as vehicle control.
Animals were assigned to treatment groups randomly. Initially, all animals were placed in one large animal cage. For assignment to the study, they were later separately housed, with 6 animals per cage per treatment group. Groups 1 and 2 are Control groups in which the animals were each administered the vehicle every other day after the first treatment. […] The animals in Groups 4, 5 and 6 were each given rSIFN-co every other day after the first treatment at 0.15 mg/mouse (Group 4) or 0.10 mg/mouse (Group 5) or 0.05 mg/mouse (Group 6), respectively. Tumor growth was monitored by measuring the length and width of each tumor twice a week during the course of the study. Each animal was also weighed twice a week during the course of the study.
(§2) Before commencement of this study, the xenografts were passaged twice in nude mice. Under sterile conditions, well-grown tumors were cut into 1.5 mm^3 fragments and one such fragment was injected by trocar needle into the right flank of each study animal. […] Individual tumor size (length and width) was measured twice per week with microcalipers. Tumor volume (V) was calculated using the formula: V=(length×width^2)/2. Individual relative tumor volume (RTV) was calculated using the formula: RTV=Vt/V0, where Vt is the tumor volume on the day of measurement and V0 is the tumor volume on the day of first treatment. Therapeutic effect of the test article or control article was expressed in terms of TIC (%), using the formula: TIC (%) (mean RTV of the treated group/mean RTV of the control group)×100%; and in terms of % Inhibition, using the formula: % Inhibition=100%−T/C %.

[3] = system: Human Cervical Cancer Hela Xenografts; assay: Human cervical cancer Hela xenografts in nude mice (Example 2); format: in vivo; details: 5 mg/kg i.v.
Method: as §2
Then 1.5 mm^3 fragments were prepared for s.c. implantation into the animals.

[4] = system: Human Colon Cancer HT-29 Xenografts; assay: Human colon cancer HT-29 xenografts in nude mice (Example 3); format: in vivo; details: 5 mg/kg i.v.
Method: as §2
Then, 1.5 mm^3 fragments were prepared for s.c. implantation into the test animals.

[5] = system: human lung cancer SPC-A4 xenografts; assay: Human lung cancer SPC-A4 xenografts in nude mice (Example 4); format: in vivo; details: 5 mg/kg i.v.
Method: as §2
The 1.5 mm^3 fragments were then used for s.c. implantation into the test animals.

Structure (SMILES)	level of apoptosis-related molecular markers (procaspase-3, procaspase-8, PARP, cleaved caspase-3, cleaved caspase-8) [1]	level of apoptosis-related molecular markers (procaspase-3, procaspase-8, PARP, cleaved caspase-3, cleaved caspase-8) [2]	TV (mm^3, mean ± SD) (D0) (human hepatoma SMMC-7721; day 0, start of treatment)	TV (mm^3, mean ± SD) (D21) (human hepatoma SMMC-7721; day 21)	TV (mm^3, mean ± SD) (D0) ([3]; day 0, start of treatment)	TV (mm^3, mean ± SD) (D28) ([3]; day 28)	TV (mm^3, mean ± SD) (D0) ([4]; day 0, start of treatment)	TV (mm^3, mean ± SD) (D28) ([4]; day 28)	TV (mm^3, mean ± SD) (D0) ([5]; day 0, start of treatment)	TV (mm^3, mean ± SD) (D21) ([5]; day 21)
O=c1[nH]cc(F)c(=O)[nH]1 [5FU, reference compound]	significant reduction of in the level of procaspase-3, procaspase-8 and PARP, but exhibited an enhanced level of cleaved caspase-3 and cleaved caspase-8	significant reduction of in the level of procaspase-3, procaspase-8 and PARP, but exhibited an enhanced level of cleaved caspase-3 and cleaved caspase-8	–	–	–	–	–	–	–	–
CO[C@@]12[C@H](COC(N)=O)C3=C(C(=O)C(C)=C(N)C3=O)N1C[C@@H]1N[C@@H]12 [MMC, Mitomycin C, reference compound]	–	–	125 ± 35 mm^3	621 ± 247 mm^3	130 ± 28 mm^3	676 ± 358 mm^3	132 ± 22 mm^3	395 ± 95 mm^3	166 ± 42 mm^3	1831 ± 540 mm^3
